# Source: ChEMBL document CHEMBL1681692, “Identification of new GATA4-small molecule inhibitors by structure-based virtual screening” (Bioorg Med Chem, 2011)
# Active and inactive are the calls of the source. The calls are words filed in the database; no cut-off is given here.
# Target: Transcription factor GATA-4 (Homo sapiens) (UniProt P43694)
# Assay: Inhibition of GATA4-DNA interaction in HEK293 nuclear extract at 50 uM after 15 mins by EMSA assay
# Type: cell-free
# Details: not given
# Chain of Transcription factor GATA-4 (Homo sapiens) (P43694 whole entry): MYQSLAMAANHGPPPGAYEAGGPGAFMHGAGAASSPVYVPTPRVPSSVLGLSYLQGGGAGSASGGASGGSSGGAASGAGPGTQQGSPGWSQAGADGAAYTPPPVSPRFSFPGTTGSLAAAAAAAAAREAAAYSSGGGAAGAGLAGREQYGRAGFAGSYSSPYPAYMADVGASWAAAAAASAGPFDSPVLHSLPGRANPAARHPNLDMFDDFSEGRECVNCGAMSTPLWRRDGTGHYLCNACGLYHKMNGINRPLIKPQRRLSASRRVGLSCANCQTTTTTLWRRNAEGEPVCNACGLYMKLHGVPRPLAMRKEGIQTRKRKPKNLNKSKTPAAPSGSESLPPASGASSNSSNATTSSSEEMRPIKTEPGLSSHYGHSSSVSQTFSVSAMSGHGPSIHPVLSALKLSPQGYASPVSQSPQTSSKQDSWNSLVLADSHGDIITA
row,SMILES,inhibition
1,Cc1cc(C(=O)O)c(C(=O)O)c(O)n1,Active
2,NC(=O)c1ncn([C@@H]2O[C@H](COP(=O)(O)O)[C@@H](O)[C@H]2O)n1 [RIBAVIRIN MONOPHOSPHATE],Active
3,O=C(O)c1cc(C(=O)O)cc(S(=O)(=O)NCCO)c1,Active
4,O=C(O)CC(Cc1ccc2c(c1)OCO2)C(=O)O (stereo unspecified),60%

# Target: Transcription factor GATA-4 (Homo sapiens) (UniProt P43694)
# Assay: Inhibition of GATA4-DNA interaction in HEK293 nuclear extract at 100 uM after 15 mins by EMSA assay
# Type: cell-free
# Details: not given
row,SMILES,inhibition
1,Cc1cc(C(=O)O)c(C(=O)O)c(O)n1,Active
2,NC(=O)c1ncn([C@@H]2O[C@H](COP(=O)(O)O)[C@@H](O)[C@H]2O)n1 [RIBAVIRIN MONOPHOSPHATE],Active
3,O=C(O)c1cc(C(=O)O)cc(S(=O)(=O)NCCO)c1,Active
4,O=C(O)CC(Cc1ccc2c(c1)OCO2)C(=O)O (stereo unspecified),Active

# Target: Transcription factor GATA-4 (Homo sapiens) (UniProt P43694)
# Assay: Inhibition of GATA4-DNA interaction in HEK293 nuclear extract at 150 uM after 15 mins by EMSA assay
# Type: cell-free
# Details: not given
row,SMILES,inhibition
1,Cc1cc(C(=O)O)c(C(=O)O)c(O)n1,70%
2,NC(=O)c1ncn([C@@H]2O[C@H](COP(=O)(O)O)[C@@H](O)[C@H]2O)n1 [RIBAVIRIN MONOPHOSPHATE],70%
3,O=C(O)c1cc(C(=O)O)cc(S(=O)(=O)NCCO)c1,70%

# Target: Transcription factor GATA-4 (Homo sapiens) (UniProt P43694)
# Assay: Inhibition of GATA4- mediated BNP promoter activation in HeLa cells at 100 uM after 24 hrs by luciferase reporter gene assay
# Type: cell-based
# Details: not given
row,SMILES,inhibition
1,Cc1cc(C(=O)O)c(C(=O)O)c(O)n1,35%
2,NC(=O)c1ncn([C@@H]2O[C@H](COP(=O)(O)O)[C@@H](O)[C@H]2O)n1 [RIBAVIRIN MONOPHOSPHATE],16%
3,O=C(O)c1cc(C(=O)O)cc(S(=O)(=O)NCCO)c1,inactive
4,O=C(O)CC(Cc1ccc2c(c1)OCO2)C(=O)O (stereo unspecified),35%

# Target: Transcription factor GATA-4 (Mus musculus) (UniProt Q08369)
# Sequence (Q08369 whole entry): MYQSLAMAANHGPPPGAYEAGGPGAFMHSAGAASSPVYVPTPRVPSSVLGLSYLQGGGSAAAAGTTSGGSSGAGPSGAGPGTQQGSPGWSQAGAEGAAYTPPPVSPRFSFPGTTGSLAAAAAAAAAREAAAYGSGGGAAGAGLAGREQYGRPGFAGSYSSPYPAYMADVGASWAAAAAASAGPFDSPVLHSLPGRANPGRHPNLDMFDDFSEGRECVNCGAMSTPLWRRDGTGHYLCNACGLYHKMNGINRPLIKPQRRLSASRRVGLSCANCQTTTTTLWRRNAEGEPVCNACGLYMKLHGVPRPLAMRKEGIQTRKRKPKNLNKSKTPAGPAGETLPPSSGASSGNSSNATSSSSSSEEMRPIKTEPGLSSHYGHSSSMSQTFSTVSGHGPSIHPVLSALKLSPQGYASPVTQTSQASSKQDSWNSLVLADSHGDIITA
# Assay: Inhibition of GATA4- DNA interaction in mouse C2C12 cells at 100 uM after 24 hrs by EMSA assay
# Type: cell-based
# Details: not given
row,SMILES,inhibition
1,Cc1cc(C(=O)O)c(C(=O)O)c(O)n1,Active
2,NC(=O)c1ncn([C@@H]2O[C@H](COP(=O)(O)O)[C@@H](O)[C@H]2O)n1 [RIBAVIRIN MONOPHOSPHATE],Active
3,O=C(O)c1cc(C(=O)O)cc(S(=O)(=O)NCCO)c1,Active
4,O=C(O)CC(Cc1ccc2c(c1)OCO2)C(=O)O (stereo unspecified),Active

# Target: Transcription factor GATA-4 (Mus musculus) (UniProt Q08369)
# Assay: Inhibition of GATA4 in mouse C2C12 cells assessed as myoblast differentiation to myotubes at 100 uM after 48 hrs by immunofluorescence assay in presence of 0.5% FBS relative to control
# Type: cell-based
# Details: not given
row,SMILES,inhibition
1,Cc1cc(C(=O)O)c(C(=O)O)c(O)n1,inactive
2,NC(=O)c1ncn([C@@H]2O[C@H](COP(=O)(O)O)[C@@H](O)[C@H]2O)n1 [RIBAVIRIN MONOPHOSPHATE],inactive
3,O=C(O)c1cc(C(=O)O)cc(S(=O)(=O)NCCO)c1,Active
4,O=C(O)CC(Cc1ccc2c(c1)OCO2)C(=O)O (stereo unspecified),Active

# Target: Transcription factor GATA-4 (Mus musculus) (UniProt Q08369)
# Assay: Inhibition of GATA4 in mouse C2C12 cells assessed as myoblast differentiation to myotubes at 100 uM after 48 hrs by immunofluorescence assay in presence of 20 % FBS relative to control
# Type: cell-based
# Details: not given
row,SMILES,inhibition
1,Cc1cc(C(=O)O)c(C(=O)O)c(O)n1,inactive
2,NC(=O)c1ncn([C@@H]2O[C@H](COP(=O)(O)O)[C@@H](O)[C@H]2O)n1 [RIBAVIRIN MONOPHOSPHATE],inactive
3,O=C(O)c1cc(C(=O)O)cc(S(=O)(=O)NCCO)c1,Active
4,O=C(O)CC(Cc1ccc2c(c1)OCO2)C(=O)O (stereo unspecified),Active

# Test system: not listed separately
# Assay: Lipophilicity, log P of compound
# Type: physicochemical
# Details: octanol/water
row,SMILES,logP
1,Cc1cc(C(=O)O)c(C(=O)O)c(O)n1,< 0
2,NC(=O)c1ncn([C@@H]2O[C@H](COP(=O)(O)O)[C@@H](O)[C@H]2O)n1 [RIBAVIRIN MONOPHOSPHATE],< 0
3,O=C(O)c1cc(C(=O)O)cc(S(=O)(=O)NCCO)c1,< 0
4,O=C(O)CC(Cc1ccc2c(c1)OCO2)C(=O)O (stereo unspecified),< 0

# Test system: HeLa
# Assay: Drug uptake in human HeLa cells after 24 hrs
# Type: ADME, cell-based
# Details: not given
row,SMILES,Drug uptake
1,Cc1cc(C(=O)O)c(C(=O)O)c(O)n1,Active
2,NC(=O)c1ncn([C@@H]2O[C@H](COP(=O)(O)O)[C@@H](O)[C@H]2O)n1 [RIBAVIRIN MONOPHOSPHATE],Active
3,O=C(O)c1cc(C(=O)O)cc(S(=O)(=O)NCCO)c1,Not Active
4,O=C(O)CC(Cc1ccc2c(c1)OCO2)C(=O)O (stereo unspecified),Active

# Target: Transcription factor GATA-4 (Homo sapiens) (UniProt P43694)
# Assay: Inhibition of GATA4-DNA interaction in HEK293 nuclear extract at 50 to 150 uM after 15 mins by EMSA assay
# Details: not given
row,SMILES,inhibition
1,Cc1cc(C(=O)O)c(C(=O)O)c(O)n1,Dose-dependent effect
2,NC(=O)c1ncn([C@@H]2O[C@H](COP(=O)(O)O)[C@@H](O)[C@H]2O)n1 [RIBAVIRIN MONOPHOSPHATE],Dose-dependent effect
3,O=C(O)c1cc(C(=O)O)cc(S(=O)(=O)NCCO)c1,Dose-dependent effect
4,O=C(O)CC(Cc1ccc2c(c1)OCO2)C(=O)O (stereo unspecified),Dose-dependent effect

# Test system: HeLa
# Assay: Cytotoxicity in human HeLa cells assessed as effect on cell proliferation upto 150 uM
# Type: cell-based
# Details: not given
row,SMILES,Activity
1,Cc1cc(C(=O)O)c(C(=O)O)c(O)n1,Non-toxic
2,NC(=O)c1ncn([C@@H]2O[C@H](COP(=O)(O)O)[C@@H](O)[C@H]2O)n1 [RIBAVIRIN MONOPHOSPHATE],Non-toxic
3,O=C(O)c1cc(C(=O)O)cc(S(=O)(=O)NCCO)c1,Non-toxic
4,O=C(O)CC(Cc1ccc2c(c1)OCO2)C(=O)O (stereo unspecified),Non-toxic

# Test system: HEK293
# Assay: Cytotoxicity in human HEK293 cells assessed as effect on cell proliferation upto 150 uM
# Type: cell-based
# Details: not given
row,SMILES,Activity
1,Cc1cc(C(=O)O)c(C(=O)O)c(O)n1,Non-toxic
2,NC(=O)c1ncn([C@@H]2O[C@H](COP(=O)(O)O)[C@@H](O)[C@H]2O)n1 [RIBAVIRIN MONOPHOSPHATE],Non-toxic
3,O=C(O)c1cc(C(=O)O)cc(S(=O)(=O)NCCO)c1,Non-toxic
4,O=C(O)CC(Cc1ccc2c(c1)OCO2)C(=O)O (stereo unspecified),Non-toxic

# Test system: C2C12
# Assay: Cytotoxicity in mouse C2C12 cells assessed as effect on cell proliferation upto 150 uM
# Type: cell-based
# Details: not given
row,SMILES,Activity
1,Cc1cc(C(=O)O)c(C(=O)O)c(O)n1,Non-toxic
2,NC(=O)c1ncn([C@@H]2O[C@H](COP(=O)(O)O)[C@@H](O)[C@H]2O)n1 [RIBAVIRIN MONOPHOSPHATE],Non-toxic
3,O=C(O)c1cc(C(=O)O)cc(S(=O)(=O)NCCO)c1,Non-toxic
4,O=C(O)CC(Cc1ccc2c(c1)OCO2)C(=O)O (stereo unspecified),Non-toxic

# Test system: HeLa
# Assay: Cytotoxicity in human HeLa cells assessed as cell death upto 150 uM
# Type: cell-based
# Details: not given
row,SMILES,Activity
1,Cc1cc(C(=O)O)c(C(=O)O)c(O)n1,Non-toxic
2,NC(=O)c1ncn([C@@H]2O[C@H](COP(=O)(O)O)[C@@H](O)[C@H]2O)n1 [RIBAVIRIN MONOPHOSPHATE],Non-toxic
3,O=C(O)c1cc(C(=O)O)cc(S(=O)(=O)NCCO)c1,Non-toxic
4,O=C(O)CC(Cc1ccc2c(c1)OCO2)C(=O)O (stereo unspecified),Non-toxic

# Test system: C2C12
# Assay: Cytotoxicity in mouse C2C12 cells assessed as cell death upto 150 uM
# Type: cell-based
# Details: not given
row,SMILES,Activity
1,Cc1cc(C(=O)O)c(C(=O)O)c(O)n1,Non-toxic
2,NC(=O)c1ncn([C@@H]2O[C@H](COP(=O)(O)O)[C@@H](O)[C@H]2O)n1 [RIBAVIRIN MONOPHOSPHATE],Non-toxic
3,O=C(O)c1cc(C(=O)O)cc(S(=O)(=O)NCCO)c1,Non-toxic
4,O=C(O)CC(Cc1ccc2c(c1)OCO2)C(=O)O (stereo unspecified),Non-toxic

# Test system: HEK293
# Assay: Cytotoxicity in human HEK293 cells assessed as cell death upto 150 uM
# Type: cell-based
# Details: not given
row,SMILES,Activity
1,Cc1cc(C(=O)O)c(C(=O)O)c(O)n1,Non-toxic
2,NC(=O)c1ncn([C@@H]2O[C@H](COP(=O)(O)O)[C@@H](O)[C@H]2O)n1 [RIBAVIRIN MONOPHOSPHATE],Non-toxic
3,O=C(O)c1cc(C(=O)O)cc(S(=O)(=O)NCCO)c1,Non-toxic
4,O=C(O)CC(Cc1ccc2c(c1)OCO2)C(=O)O (stereo unspecified),Non-toxic

# Target: T1, T-box transcription factor TBX5 (Homo sapiens) (UniProt Q99593)
# T1 sequence (whole entry): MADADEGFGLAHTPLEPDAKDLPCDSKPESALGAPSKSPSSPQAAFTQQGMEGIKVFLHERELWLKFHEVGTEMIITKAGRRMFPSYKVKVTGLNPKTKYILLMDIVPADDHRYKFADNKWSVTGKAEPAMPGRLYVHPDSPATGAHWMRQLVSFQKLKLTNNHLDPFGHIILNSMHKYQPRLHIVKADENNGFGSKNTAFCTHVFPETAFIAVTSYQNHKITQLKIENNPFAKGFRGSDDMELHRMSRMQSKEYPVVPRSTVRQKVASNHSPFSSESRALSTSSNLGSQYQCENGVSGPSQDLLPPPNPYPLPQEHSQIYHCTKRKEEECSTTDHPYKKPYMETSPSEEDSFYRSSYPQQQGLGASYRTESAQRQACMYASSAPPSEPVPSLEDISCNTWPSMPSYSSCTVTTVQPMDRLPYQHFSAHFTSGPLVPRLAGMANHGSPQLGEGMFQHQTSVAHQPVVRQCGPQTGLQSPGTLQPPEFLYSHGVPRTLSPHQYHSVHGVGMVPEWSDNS
# Assay: Effect on Tbx5 in HEK293 nuclear extract at 50 uM after 15 mins by EMSA assay
# Details: not given
row,SMILES,Activity
1,Cc1cc(C(=O)O)c(C(=O)O)c(O)n1,inactive
2,NC(=O)c1ncn([C@@H]2O[C@H](COP(=O)(O)O)[C@@H](O)[C@H]2O)n1 [RIBAVIRIN MONOPHOSPHATE],inactive
3,O=C(O)c1cc(C(=O)O)cc(S(=O)(=O)NCCO)c1,inactive
4,O=C(O)CC(Cc1ccc2c(c1)OCO2)C(=O)O (stereo unspecified),inactive

# Target: T2, Nuclear factor of activated T-cells, cytoplasmic 1 (Homo sapiens) (UniProt O95644)
# T2 sequence (whole entry): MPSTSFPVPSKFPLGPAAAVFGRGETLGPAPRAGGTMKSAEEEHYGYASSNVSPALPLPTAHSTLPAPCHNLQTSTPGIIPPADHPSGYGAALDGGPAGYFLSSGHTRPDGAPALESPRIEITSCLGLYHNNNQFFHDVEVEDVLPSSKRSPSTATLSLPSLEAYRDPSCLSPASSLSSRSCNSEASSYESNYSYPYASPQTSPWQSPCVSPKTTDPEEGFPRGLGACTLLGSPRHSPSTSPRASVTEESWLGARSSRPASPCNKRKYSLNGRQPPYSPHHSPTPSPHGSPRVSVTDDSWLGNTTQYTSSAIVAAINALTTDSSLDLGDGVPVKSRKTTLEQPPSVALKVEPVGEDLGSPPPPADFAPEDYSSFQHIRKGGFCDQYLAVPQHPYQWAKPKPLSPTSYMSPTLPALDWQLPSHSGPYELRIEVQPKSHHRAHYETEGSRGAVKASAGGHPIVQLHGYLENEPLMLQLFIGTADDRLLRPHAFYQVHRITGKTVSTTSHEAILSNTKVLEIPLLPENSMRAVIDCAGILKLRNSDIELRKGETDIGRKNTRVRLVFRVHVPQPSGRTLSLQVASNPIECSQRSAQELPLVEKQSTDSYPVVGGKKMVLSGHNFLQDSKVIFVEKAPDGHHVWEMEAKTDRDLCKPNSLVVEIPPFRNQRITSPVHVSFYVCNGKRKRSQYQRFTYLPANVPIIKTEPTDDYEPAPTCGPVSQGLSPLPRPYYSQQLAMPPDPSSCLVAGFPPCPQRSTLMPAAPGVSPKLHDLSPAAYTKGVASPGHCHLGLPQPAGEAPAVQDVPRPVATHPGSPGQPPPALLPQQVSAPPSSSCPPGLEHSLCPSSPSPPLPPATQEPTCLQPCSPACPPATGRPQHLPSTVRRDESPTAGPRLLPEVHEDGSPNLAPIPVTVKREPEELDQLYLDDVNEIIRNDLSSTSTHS
# Assay: Effect on NFATc1 in HEK293 nuclear extract at 50 uM after 15 mins by EMSA assay
# Details: not given
row,SMILES,Activity
1,Cc1cc(C(=O)O)c(C(=O)O)c(O)n1,inactive
2,NC(=O)c1ncn([C@@H]2O[C@H](COP(=O)(O)O)[C@@H](O)[C@H]2O)n1 [RIBAVIRIN MONOPHOSPHATE],inactive
3,O=C(O)c1cc(C(=O)O)cc(S(=O)(=O)NCCO)c1,inactive
4,O=C(O)CC(Cc1ccc2c(c1)OCO2)C(=O)O (stereo unspecified),inactive
